In experiment [1] the test system is papillary muscle of the guineapig. The experiment in a line: Action potential duration on the papillary muscle of the guineapig. Type of experiment: cell-based. Conditions: test substance 2.2×10^-5 mol per liter, 30 minutes after the addition, control without test substance <40; for APD95 -HOE 234: action potential shortened by 1 μM rilmakalim (Hoe 234); for APD95 -DEO: action potential shortened by 2-deoxyglucose (DEO). An excerpt: ATP deficiency states such as are observed during ischemia in the cardiac muscle cell lead to a shortening of the duration of action potential. They are one of the causes of so-called reentry arrhythmias, which can cause sudden cardiac death. Opening of ATP-sensitive K channels by the reduction in ATP is a cause of this.
A standard microelectrode technique is used for measurement of the action potential. For this, guineapigs of both sexes are sacrificed by a blow to the head, the hearts are removed and the papillary muscles are separated out and suspended in an organ bath. The organ bath is flushed with Ringer solution (0.9% NaCl, 0.048% KCl, 0.024% CaCl2, 0.02% NaHCO3 and 0.1% glucose) and gassed with a mixture of 95% oxygen and 5% carbon dioxide at a temperature of 36° C. The muscle is stimulated via an electrode with rectangular pulses of 1 V and 1 ms duration and a frequency of 2 Hz. The action potential is conducted and recorded through a glass microelectrode, which is punctured intracellularly and filled with […] solution. The substances to be tested were added to the Ringer solution in a concentration of 2.2×10^-5 mol per liter. The action potential is shown in amplified form on an oscilloscope using a Hugo Sachs amplifier. The duration of the action potential is determined at a repolarization degree of 95% (APD95). Shortenings in action potential are caused either by addition of a 1 μM strength solution of the potassium channel opener rilmakalim (Hoe 234) [W. Linz, E. Klaus, U. Albus, R. H. A. Becker, D. Mania, H. C. Englert, B. A. Scholkens Arzneimittelforschung/Drug Research, Volume 42 (II), 1992, pages 1180-1185] or by addition of 2-deoxyglucose (DEO). ATP deficiency states are caused in experimental physiology by 2-deoxyglucose by blockade of glucose metabolism. The action potential-shortening effect of these substances was prevented or reduced by the simultaneous dose of the test substances. The test substances were added to the bath solution as stock solutions in propanediol. The values stated relate to measurements 30 minutes after the addition. The APD95 in the presence of DEO or HOE 234 and in the absence of the test substance serves as a control.

The subject of the next experiment is RINm5F cells. The experiment in a line: Membrane potential on isolated β cells (RINm5F cells, whole cell patch clamp). Conditions: 10^-5 mol per liter, diazoxide (100 μmol) in bath, 34°±1° C., n = 6. The experiment is classed as cell-based. On the procedure: The action mechanism of hypoglycemic sulfonylureas is clarified in rough outlines. The β cells of the pancreas are the target organ, where increased secretion of the hypoglycemic hormone insulin occurs. The release of insulin is controlled by the cell membrane potential. Glihenclamide causes depolarization of the cell membrane, which promotes insulin release via an increased in-flow of calcium ions. The extent of this depolarization of the cell membrane ΔU was determined on RINm5F cells, a pancreas tumor cell line, for some of the compounds according to the invention. The action strength of a compound in this model predicts the extent of the hypoglycemic potential of this compound.
RINm5F cells were cultured at 37° C. in RPMI 1640 culture medium (flow), to which 11 mmol of glucose, 10% (volume/volume) of fetal calf serum, 2 mmol of glutamine and 50 μg/ml of gentamycin were added. For the studies, the cells were isolated by incubation (about 3 minutes) in a Ca^2+ -free medium containing 0.25% of trypsin and stored on ice.
Isolated RINm5F cells were introduced into a Plexiglas chamber on an inverse microscope fitted with a differential interference contrast lens. […] The cell potential was recorded in this whole cell configuration with the aid of a patch clamp amplifier (L/M EPC 7) and was measured by applying a potential ramp to the whole cell current. […]

Turning to `CCC1=C(C)CN(C(=O)NCCc2ccc(OC)c(S(=O)(=O)NC(=S)NC)c2)C1=O` [Example 1, 1-{2-Methoxy-5-[2-(3-ethyl-4-methyl-2-oxo-3-pyrrolinyl-1-carboxamido)-ethyl]-phenylsulfonyl-}3-methylthiourea], in experiment [1], the “APD95 -HOE 234” value is on record as 119 ± 16 ms and the “APD95 -DEO” value is on record as 60 ± 22 ms. Besides, the “ΔU (depolarization of the cell membrane)” value in the experiment with RINm5F cells is on record as 2 mV.
As to `CCC1=C(C)CN(C(=O)NCCc2ccc(OC)c(S(=O)(=O)NC(=O)NC)c2)C1=O` [Example 2, 1-{2-Methoxy-5-[2-(3-ethyl-4-methyl-2-oxo-3-pyrrolinyl-1-carboxamido)-ethyl]-phenylsulfonyl-}3-methylurea], in experiment [1], the “APD95 -HOE 234” value came to 125 ms and the “APD95 -DEO” value came out at 110 ms. Moreover, in the experiment with RINm5F cells, the “ΔU (depolarization of the cell membrane)” value is 12 mV.
